Data on four molecules can be found in BindingDB's records for doi:10.1111/cbdd.12746 (Ahi Evran University, 2016).

pIC50, pKi: −log10 of the molar value.

As usually defined, the pIC50 is the IC50 on a negative log10 scale, so that one unit is a factor of ten. The term pKi denotes −log10 of the Ki, conventionally taken in molar units. High values mean a small Ki, low ones a large Ki.

Sequence of Serum paraoxonase/arylesterase 1 (P27169 whole entry): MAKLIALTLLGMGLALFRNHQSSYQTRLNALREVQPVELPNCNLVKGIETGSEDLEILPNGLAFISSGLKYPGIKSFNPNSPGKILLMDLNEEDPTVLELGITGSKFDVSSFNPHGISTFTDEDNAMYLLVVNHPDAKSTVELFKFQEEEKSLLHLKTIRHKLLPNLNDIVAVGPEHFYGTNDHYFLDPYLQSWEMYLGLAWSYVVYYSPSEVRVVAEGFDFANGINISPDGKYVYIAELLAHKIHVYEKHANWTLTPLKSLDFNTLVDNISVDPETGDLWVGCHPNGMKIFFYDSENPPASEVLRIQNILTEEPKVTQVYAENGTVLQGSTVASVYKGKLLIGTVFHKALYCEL

The experiment has as its target Serum paraoxonase/arylesterase 1 (Homo sapiens, UniProt P27169). As to the kind of experiment: Paraoxonase Activity Assay. Particulars: pH 10.5. The method, then:
Paraoxonase enzyme activity was determined at 25 °C with paraoxon (1 mM) in 50 mM glycine-NaOH (pH 10.5) containing 1 mM CaCl2. The enzyme assay was based on the estimation of p-nitrophenol at 412 nm. Assays were performed using a spectrophotometer (CHEBIOS UV-VIS, Fullerton, CA). The molar extinction coefficient of paranitrophenol (Ɛ = 18 290/M/cm at pH 10.5) is used for thecalculation of enzyme activity. One enzyme unit was defined as the amount of enzyme that catalyzes the hydrolysis of 1 µmol of paraoxon at 25 °C (J. Chromatogr. B. 2006, 836:15-21).
Turning to `COc1cc([C@@H]2c3cc4c(cc3[C@@H](O[C@@H]3O[C@@H]5CO[C@@H](C)O[C@H]5[C@H](O)[C@H]3O)[C@H]3COC(=O)[C@H]23)OCO4)cc(OC)c1O` [4'-Demethylepipodophyllotoxin 9-(4,6-O-(R)-ethylidene-beta-D-glucopyranoside)], the negative-log IC50 (pIC50) was 3.65 and the pKi was 3.88.
Molecule `O=P1(NCCCl)OCCCN1CCCl` (stereo not drawn) [N,3-bis(2-chloroethyl)-2-oxo-1,3,2-oxazaphosphinan-2-amine] had a negative logarithm of the IC50 (pIC50) of 1.63 and a negative logarithm of the Ki (pKi) of 2.05.
As for `CC(=O)O[C@H]1C(=O)[C@@]2(C)[C@H]([C@H](OC(=O)c3ccccc3)[C@]3(O)C[C@H](OC(=O)[C@H](O)[C@@H](NC(=O)c4ccccc4)c4ccccc4)C(C)=C1C3(C)C)[C@]1(OC(C)=O)CO[C@@H]1C[C@@H]2O`, the pIC50 is 4.38 and the pKi is 4.78.
`CC(=O)O[C@@]12CO[C@@H]1C[C@H](O)[C@@]1(C)C(=O)[C@H](O)C3=C(C)[C@@H](OC(=O)[C@H](O)[C@@H](NC(=O)OC(C)(C)C)c4ccccc4)C[C@@](O)([C@@H](OC(=O)c4ccccc4)[C@H]21)C3(C)C` [CID148124] showed a pIC50 of 3.18 and a pKi of 3.54.
